{"source": "patent US20250179519A1", "about": "“PROCESS TO ENHANCE VIRAL VECTOR PRODUCTION IN CELL-CULTURE USING GLYCYL-GLUTAMINE” (Evonik Operations GmbH, priority 2022, published 2025)", "key": {"HEK Expi293F cells": {"system": "HEK Expi293F cells", "assay": "Transfection efficiency via GFP expression by flow cytometry", "type": "cell-based", "settings": "for transfection efficiency: 96 h post transfection, 8 mM supplement", "experimental": "(§1) A lab study to evaluate the influence of glutamine-dipeptides on viral vector production (AAV8) was conducted. HEK293 cells (HEK Expi293F cells, Thermo Fisher Scientific) were pre-cultured in shake flasks in a commercial culture medium recommended for viral vector production (Freestyle F17 Expression medium, Gibco, Thermo Fisher Scientific). After thawing the cells in 20 ml of the respective media variant (final concentration of glutamine or glutamine dipeptide in media variants was 8 mM) in 125 mL shake flasks, they were cultivated for five passages at 37° C. (185 rpm/50 mm orbit, 5% CO2) following a passaging rhythm of 3-4 days. For production, cells were split into three replicates each with a seeding viable cell density of 2×10^6 cells/mL (day 0) in 22 mL of the respective media variant. They were transfected with polyethylenimine (PEI MAX, Polysciences) with a 2-plasmid system for AAV8 (Plasmid Factory) featuring green fluorescent protein (GFP) as gene of interest 24 hours after inoculation (day 1). Again, media variants were supplemented by glutamine (Gln), alanyl-glutamine (Ala-Gln, via the liquid supplement, GlutaMAX™, Gibco, Thermo Fisher Scientific) or glycyl-glutamine hydrate (Gly-Gln, cQrex® GQ, Evonik Operations) to a final concentration glutamine or glutamine dipeptide of 8 mM (each n=3).\n(§2) To analyze cell culture performance in the different media supplementations viable cell density and viability were determined via automated cell counter. Ammonium (fluorometric approach) as well as glucose and lactate concentration (enzymatic-amperometric method) were determined during preculture and AAV8 production phase on samples from one shake flask per supplement. Transfection efficiency was determined via GFP expression by flow cytometry 48, 72 and 96 h post-transfection. For AAV8 titer determination, samples of all replicates (supernatants only) were taken 96 and 120 h post-transfection and analyzed via qPCR (genomic titer) and ELISA (capsid titer)."}, "[1]": {"system": "AAV8 production in HEK Expi293F cells", "assay": "Genomic AAV8 titer from supernatant by qPCR", "type": "cell-based", "settings": "8 mM supplement; for genomic AAV8 titer: supernatant", "experimental": "as §1, §2"}, "[2]": {"settings": "compared with glutamine; cited from earlier work"}, "[3]": {"system": "AAV8 production in HEK Expi293F cells", "assay": "AAV8 capsid titer from supernatant by ELISA", "type": "cell-based", "settings": "96 h and 120 h post transfection", "experimental": "A lab study to evaluate the influence of glutamine-dipeptides on viral vector production (AAV8) was conducted. HEK293 cells (HEK Expi293F cells, Thermo Fisher Scientific) were pre-cultured in shake flasks in a commercial culture medium recommended for viral vector production (Freestyle F17 Expression medium, Gibco, Thermo Fisher Scientific). After thawing the cells in 20 ml of the respective media variant (final concentration of glutamine or glutamine dipeptide in media variants was 8 mM) in 125 mL shake flasks, they were cultivated for five passages at 37° C. (185 rpm/50 mm orbit, 5% CO2) following a passaging rhythm of 3-4 days. […]\nas §2"}, "mouse hybridoma (CC9C10)": {"system": "mouse hybridoma (CC9C10)", "settings": "CC9C10 culture; Gly-Gln 20 mM, Ala-Gln 6 mM; cited from earlier work"}, "[4]": {"system": "AAV8 production in HEK Expi293F cells", "assay": "Full/empty ratio (genomic titer vs. capsid titer)", "type": "cell-based", "settings": "from mean values", "experimental": "In a preferred embodiment, the “full/empty ratio” shall be defined as viral genome titer (vg) divided by viral particle titer (vp). A suitable method to determine vg is quantitative polymerase chain reaction (qPCR). A suitable method to measure vp titer including intact virions and empty capsids is serotype-specific enzyme-linked immunosorbent assay (ELISA).\nas §2\nThe full/empty ratio (ratio genomic titer in vg/mL vs. capsid titer in vp/mL) was calculated using the mean values for both sampling points (FIG. 11). The full/empty ratio varied between 14-22% for the 96 h post transfection time point and between 13-21% for the 120 h post transfection time point. […]"}, "[5]": {"settings": "at 20° C. in water; cited from earlier work"}}, "note": "Peptide text beside a SMILES is read from it."}
{"smiles": "C[C@H](N)C(=O)N[C@@H](CCC(N)=O)C(=O)O", "note": "[Ala-Gln, alanyl-glutamine, reference compound] (H-Ala-Gln-OH)", "values": [{"measurement": "transfection efficiency", "setting": "HEK Expi293F cells", "result": 98, "unit": "%"}, {"measurement": "genomic titer, comparison between supplements", "setting": "[1]", "result": "comparable to the other processes"}, {"measurement": "stability during autoclaving and storage", "setting": "[2]", "result": "comparably stable"}, {"measurement": "capsid titer compared to cultures supplemented with Gln", "setting": "[3]", "result": "higher capsid titers"}, {"measurement": "cell yields", "setting": "mouse hybridoma (CC9C10)", "result": "high cell yields"}, {"measurement": "monoclonal antibody production", "setting": "mouse hybridoma (CC9C10)", "result": "comparable"}]}
{"smiles": "NC(=O)CC[C@H](N)C(=O)O", "note": "[Gln, L-glutamine]", "values": [{"measurement": "transfection efficiency", "setting": "HEK Expi293F cells", "result": 98, "unit": "%"}, {"measurement": "monoclonal antibody production", "setting": "mouse hybridoma (CC9C10)", "result": "comparable"}]}
{"smiles": "NCC(=O)N[C@@H](CCC(N)=O)C(=O)O.O", "note": "[Gly-Gln, Glycyl-L-Glutamine hydrate] (H-Gly-Gln-OH)", "values": [{"measurement": "transfection efficiency", "setting": "HEK Expi293F cells", "result": 98, "unit": "%"}, {"measurement": "transfection efficiency, comparison between supplements", "setting": "HEK Expi293F cells; Gln vs Ala-Gln vs Gly-Gln, 8 mM", "result": "highest transfection efficiency"}, {"measurement": "relative fluorescence, comparison between supplements", "setting": "HEK Expi293F cells; all sampling points (48, 72, 96 h)", "result": "highest relative fluorescence"}, {"measurement": "genomic AAV8 titer", "setting": "[1]; 96 h post transfection", "result": "7.3×10^10 vg/mL"}, {"measurement": "genomic AAV8 titer", "setting": "[1]; 120 h post transfection", "result": "8.2×10^10 vg/mL"}, {"measurement": "stability during autoclaving and storage", "setting": "[2]", "result": "comparably stable"}, {"measurement": "full/empty ratio", "setting": "[4]; 96 h post transfection", "result": 22, "unit": "%"}, {"measurement": "full/empty ratio", "setting": "[4]; 120 h post transfection", "result": 21, "unit": "%"}, {"measurement": "capsid titer compared to cultures supplemented with Gln", "setting": "[3]", "result": "higher capsid titers"}, {"measurement": "cell yields", "setting": "mouse hybridoma (CC9C10)", "result": "high cell yields"}, {"measurement": "monoclonal antibody production", "setting": "mouse hybridoma (CC9C10)", "result": "comparable"}, {"measurement": "solubility", "setting": "[5]", "result": 154, "unit": "mg/mL"}]}
